Tests used:
[1] = Solubility of AI compound in AI-helper composition (AI compound added until saturated); type: physicochemical; details: water
Method: Solubility was tested by adding small amounts of AI compound to a set volume of an AI-helper composition at a certain temperature until the AI-helper composition was saturated with the AI compound, and measuring the amount of the AI compound added to calculate the solubility of the AI compound in the AI-helper composition at the temperature.

[2] = clinical; details: human, plasma, topical, 3 mg
[3] = test system: human skin tissue; test: Penetration rate of AI compound in AI-helper composition through human skin in vitro, modified Franz cells; type: in vitro ADME
Method: Penetration rate of AI compound in the AI-helper composition through human skin were measured in vitro by modified Franz cells. A Franz cell had two chambers: the top sample chamber and the bottom receiving chamber. The human skin tissue (450-500 μm thick) that separated the top and the receiving chambers was isolated from the anterior or posterior thigh areas.

Solubility of melatonin ([1]; tryptophan isopropyl ester•HA 10% w/v, HA = 1/2H2SO4, 20° C.): >1.4% (w/v)
Solubility of melatonin ([1]; tryptophan isopropyl ester•HA 10% w/v, HA = 1/3H3PO4, 20° C.): >1.2% (w/v)
Solubility of melatonin ([1]; tryptophan isopropyl ester•HA 10% w/v, HA = 2/3H3PO4, 20° C.): >1.3% (w/v)
Solubility of melatonin ([1]; tryptophan isopropyl ester•HA 10% w/v, HA = Citric acid, 20° C.): >1.2% (w/v)
Solubility of melatonin ([1]; tryptophan isopropyl ester•HA 10% w/v, HA = H2SO4, 20° C.): >1.4% (w/v)
Solubility of melatonin ([1]; tryptophan isopropyl ester•HA 10% w/v, HA = HBr, 20° C.): >1.4% (w/v)
Solubility of melatonin ([1]; tryptophan isopropyl ester•HA 10% w/v, HA = HCl, 20° C.): >1.5% (w/v)
Solubility of melatonin ([1]; tryptophan isopropyl ester•HA 10% w/v, HA = HF, 20° C.): >1.5% (w/v)
Solubility of melatonin ([1]; tryptophan isopropyl ester•HA 10% w/v, HA = HI, 20° C.): >1.3% (w/v)
Solubility of melatonin ([1]; tryptophan isopropyl ester•HA 10% w/v, HA = acetic acid, 20° C.): >1.4% (w/v)
Solubility of melatonin ([1]; tryptophan isopropyl ester•HA 10% w/v, HA = benzoic acid, 20° C.): >1.3% (w/v)
Solubility of melatonin ([1]; tryptophan isopropyl ester•HA 10% w/v, HA = butyric acid, 20° C.): >1.3% (w/v)
Solubility of melatonin ([1]; tryptophan isopropyl ester•HA 10% w/v, HA = lactic acid, 20° C.): >1.4% (w/v)
Solubility of melatonin ([1]; tyrosine isopropyl ester•HA 10% w/v, HA = 1/2H2SO4, 20° C.): >1% (w/v)
Solubility of melatonin ([1]; tyrosine isopropyl ester•HA 10% w/v, HA = 1/3H3PO4, 20° C.): >1.0% (w/v)
Solubility of melatonin ([1]; tyrosine isopropyl ester•HA 10% w/v, HA = 2/3H3PO4, 20° C.): >1.1% (w/v)
Solubility of melatonin ([1]; tyrosine isopropyl ester•HA 10% w/v, HA = H2SO4, 20° C.): >1.2% (w/v)
Solubility of melatonin ([1]; tyrosine isopropyl ester•HA 10% w/v, HA = HBr, 20° C.): >1.2% (w/v)
Solubility of melatonin ([1]; tyrosine isopropyl ester•HA 10% w/v, HA = HCl, 20° C.): >1.3% (w/v)
Solubility of melatonin ([1]; tyrosine isopropyl ester•HA 10% w/v, HA = HF, 20° C.): >1.3% (w/v)
Solubility of melatonin ([1]; tyrosine isopropyl ester•HA 10% w/v, HA = HI, 20° C.): >1% (w/v)
Solubility of melatonin ([1]; tyrosine isopropyl ester•HA 10% w/v, HA = acetic acid, 20° C.): >1.1% (w/v)
Solubility of melatonin ([1]; tyrosine isopropyl ester•HA 10% w/v, HA = benzoic acid, 20° C.): >1% (w/v)
Solubility of melatonin ([1]; tyrosine isopropyl ester•HA 10% w/v, HA = butyric acid, 20° C.): >1% (w/v)
Solubility of melatonin ([1]; tyrosine isopropyl ester•HA 10% w/v, HA = citric acid, 20° C.): >1% (w/v)
Solubility of melatonin ([1]; tyrosine isopropyl ester•HA 10% w/v, HA = lactic acid, 20° C.): >1.1% (w/v)
concentration at 0 hr [2]: 0 ng/mL
concentration at 1 h [2]: 1.4 ng/mL
concentration at 1 hr [2]: 1.6 ng/mL
concentration at 2 h [2]: 1.5 ng/mL
concentration at 2 hr [2]: 1.7 ng/mL
concentration at 4 h [2]: 1.5 ng/mL
concentration at 4 hr [2]: 1.8 ng/mL
concentration at 8 h [2]: 1.4 ng/mL
concentration at 8 hr [2]: 1.7 ng/mL
Skin penetration rate of melatonin ([3]; 1% melatonin (a suspension) without helper esters, 20° C.): 1.153 ± 0.111 μg/cm^2/h
Skin penetration rate of melatonin ([3]; melatonin 1% w/v, Tryptophan isopropyl ester•HA 6% w/v, HA = 1/2H2SO4, water, 20° C.): 15.928 ± 1.476 μg/cm^2/h
Skin penetration rate of melatonin ([3]; melatonin 1% w/v, Tryptophan isopropyl ester•HA 6% w/v, HA = 2/3H3PO4, water, 20° C.): 15.691 ± 1.571 μg/cm^2/h
Skin penetration rate of melatonin ([3]; melatonin 1% w/v, Tryptophan isopropyl ester•HA 6% w/v, HA = Benzoic acid, water, 20° C.): 14.665 ± 1.589 μg/cm^2/h
Skin penetration rate of melatonin ([3]; melatonin 1% w/v, Tryptophan isopropyl ester•HA 6% w/v, HA = Butyric acid, water, 20° C.): 15.378 ± 1.598 μg/cm^2/h
Skin penetration rate of melatonin ([3]; melatonin 1% w/v, Tryptophan isopropyl ester•HA 6% w/v, HA = Citric acid, water, 20° C.): 15.371 ± 1.287 μg/cm^2/h
Skin penetration rate of melatonin ([3]; melatonin 1% w/v, Tryptophan isopropyl ester•HA 6% w/v, HA = H2SO4, water, 20° C.): 16.780 ± 1.891 μg/cm^2/h
Skin penetration rate of melatonin ([3]; melatonin 1% w/v, Tryptophan isopropyl ester•HA 6% w/v, HA = HBr, water, 20° C.): 15.971 ± 1.785 μg/cm^2/h
Skin penetration rate of melatonin ([3]; melatonin 1% w/v, Tryptophan isopropyl ester•HA 6% w/v, HA = HCl, water, 20° C.): 16.678 ± 1.567 μg/cm^2/h
Skin penetration rate of melatonin ([3]; melatonin 1% w/v, Tryptophan isopropyl ester•HA 6% w/v, HA = HF, water, 20° C.): 16.165 ± 1.167 μg/cm^2/h
Skin penetration rate of melatonin ([3]; melatonin 1% w/v, Tryptophan isopropyl ester•HA 6% w/v, HA = HI, water, 20° C.): 14.467 ± 1.183 μg/cm^2/h
Skin penetration rate of melatonin ([3]; melatonin 1% w/v, Tryptophan isopropyl ester•HA 6% w/v, HA = Lactic acid, water, 20° C.): 15.897 ± 1.109 μg/cm^2/h
Skin penetration rate of melatonin ([3]; melatonin 1% w/v, Tyrosine isopropyl ester•HA 6% w/v, HA = 1/2H2SO4, water, 20° C.): 15.978 ± 2.136 μg/cm^2/h
Skin penetration rate of melatonin ([3]; melatonin 1% w/v, Tyrosine isopropyl ester•HA 6% w/v, HA = 1/3H3PO4, water, 20° C.): 15.848 ± 1.782 μg/cm^2/h
Skin penetration rate of melatonin ([3]; melatonin 1% w/v, Tyrosine isopropyl ester•HA 6% w/v, HA = 2/3H3PO4, water, 20° C.): 16.156 ± 3.124 μg/cm^2/h
Skin penetration rate of melatonin ([3]; melatonin 1% w/v, Tyrosine isopropyl ester•HA 6% w/v, HA = Acetic acid, water, 20° C.): 15.983 ± 3.471 μg/cm^2/h
Skin penetration rate of melatonin ([3]; melatonin 1% w/v, Tyrosine isopropyl ester•HA 6% w/v, HA = Benzoic acid, water, 20° C.): 17.002 ± 3.257 μg/cm^2/h
Skin penetration rate of melatonin ([3]; melatonin 1% w/v, Tyrosine isopropyl ester•HA 6% w/v, HA = Butyric acid, water, 20° C.): 16.125 ± 1.972 μg/cm^2/h
Skin penetration rate of melatonin ([3]; melatonin 1% w/v, Tyrosine isopropyl ester•HA 6% w/v, HA = Citric acid, water, 20° C.): 16.246 ± 2.319 μg/cm^2/h
Skin penetration rate of melatonin ([3]; melatonin 1% w/v, Tyrosine isopropyl ester•HA 6% w/v, HA = H2SO4, water, 20° C.): 16.632 ± 1.357 μg/cm^2/h
Skin penetration rate of melatonin ([3]; melatonin 1% w/v, Tyrosine isopropyl ester•HA 6% w/v, HA = HBr, water, 20° C.): 16.578 ± 2.117 μg/cm^2/h
Skin penetration rate of melatonin ([3]; melatonin 1% w/v, Tyrosine isopropyl ester•HA 6% w/v, HA = HF, water, 20° C.): 15.765 ± 1.946 μg/cm^2/h
Skin penetration rate of melatonin ([3]; melatonin 1% w/v, Tyrosine isopropyl ester•HA 6% w/v, HA = HI, water, 20° C.): 15.863 ± 1.970 μg/cm^2/h
Skin penetration rate of melatonin ([3]; melatonin 1% w/v, Tyrosine isopropyl ester•HA 6% w/v, HA = Lactic acid, water, 20° C.): 16.029 ± 2.467 μg/cm^2/h
Skin penetration rate of melatonin ([3]; no helper ester (None), melatonin 1 % w/v (suspension) in water, 20 °C): 1.153 ± 0.111 μg/cm^2/h
Skin penetration rate of AI compound ([3]; no isoleucine ester (None), AI compound 0.5 % w/v (a suspension) in water, 20 °C): 1.147 ± 0.123 μg/cm^2/h
Skin penetration rate of AI compound ([3]; no leucine ester (None), AI compound 0.5 % w/v (a suspension) in water, 20 °C): 1.147 ± 0.123 μg/cm^2/h
Skin penetration rate of melatonin ([3]; no proline ester (None), melatonin 0.5 % w/v (suspension) in water, 20 °C): 1.147 ± 0.123 μg/cm^2/h
Skin penetration rate of AI compound ([3]; no tryptophan ester (None), AI compound 1 % w/v (suspension) in water, 20 °C): 1.153 ± 0.111 μg/cm^2/h
Skin penetration rate of melatonin ([3]; no tyrosine ester (None), melatonin 1 % w/v (suspension) in water, 20 °C): 1.153 ± 0.111 μg/cm^2/h
Skin penetration rate of AI compound ([3]; with D-tryptophan ethyl ester hydrochloride 6 % w/v in water, AI compound 1 % w/v, 20 °C): 16.011 ± 1.511 μg/cm^2/h
Skin penetration rate of AI compound ([3]; with D-tryptophan isopropyl ester hydrochloride 6 % w/v in water, AI compound 1 % w/v, 20 °C): 16.451 ± 1.473 μg/cm^2/h
Skin penetration rate of AI compound ([3]; with D-tryptophan pentyl ester hydrochloride 6 % w/v in water, AI compound 1 % w/v, 20 °C): 15.003 ± 1.513 μg/cm^2/h
Skin penetration rate of AI compound ([3]; with L-isoleucine ethyl ester hydrochloride 6 % w/v in water, AI compound 0.5 % w/v, 20 °C): 9.012 ± 0.148 μg/cm^2/h
Skin penetration rate of AI compound ([3]; with L-isoleucine isopropyl ester hydrochloride 6 % w/v in water, AI compound 0.5 % w/v, 20 °C): 9.015 ± 0.161 μg/cm^2/h
Skin penetration rate of AI compound ([3]; with L-isoleucine methyl ester hydrochloride 6 % w/v in water, AI compound 0.5 % w/v, 20 °C): 8.712 ± 0.168 μg/cm^2/h
Skin penetration rate of AI compound ([3]; with L-isoleucine pentyl ester hydrochloride 6 % w/v in water, AI compound 0.5 % w/v, 20 °C): 8.219 ± 0.201 μg/cm^2/h
Skin penetration rate of AI compound ([3]; with L-leucine ethyl ester hydrochloride 6 % w/v in water, AI compound 0.5 % w/v, 20 °C): 9.101 ± 0.153 μg/cm^2/h
Skin penetration rate of AI compound ([3]; with L-leucine hexyl ester hydrochloride 6 % w/v in water, AI compound 0.5 % w/v, 20 °C): 8.019 ± 0.181 μg/cm^2/h
Skin penetration rate of AI compound ([3]; with L-leucine isopropyl ester hydrochloride 6 % w/v in water, AI compound 0.5 % w/v, 20 °C): 9.371 ± 0.137 μg/cm^2/h
Skin penetration rate of AI compound ([3]; with L-leucine methyl ester hydrochloride 6 % w/v in water, AI compound 0.5 % w/v, 20 °C): 9.058 ± 0.131 μg/cm^2/h
Skin penetration rate of AI compound ([3]; with L-tryptophan butyl ester hydrochloride 6 % w/v in water, AI compound 1 % w/v, 20 °C): 15.676 ± 1.574 μg/cm^2/h
Skin penetration rate of AI compound ([3]; with L-tryptophan isopropyl ester hydrochloride 6 % w/v in water, AI compound 1 % w/v, 20 °C): 16.678 ± 1.567 μg/cm^2/h
Skin penetration rate of AI compound ([3]; with L-tryptophan pentyl ester hydrochloride 6 % w/v in water, AI compound 1 % w/v, 20 °C): 15.012 ± 1.315 μg/cm^2/h
SMILES: COc1ccc2[nH]cc(CCNC(C)=O)c2c1 [Melatonin]

From US9962369B2, “Methods and compositions for transdermal delivery” (SPRAYABLE HOLDINGS, INC., priority 2014, dated 2018)
